Experiment: Release of torasemide (active substance) in water, USP 24
Format: physicochemical
Conditions: 37° C., 50 rpm, 1000 ml
Protocol: The physical mixture of the modification I of torasemide and β-cyclodextrin prepared according to the Example 1 of the present invention was subjected to testing the release of the active substance in water at the temperature of 37° C.
The inclusion complex of the modification I of torasemide and β-cyclodextrin to the Example 3 of the present invention was subjected to testing the release of the active substance in water at the temperature of 37° C.

## Cc1cccc(Nc2ccncc2S(=O)(=O)NC(=O)NC(C)C)c1 [Modification I of torasemide, N-(1-methylethylaminocarbonyl)-4-(3-methylphenylamino)-3-pyridylsulfonamide]
Time 0 min
  Released torasemide (%): 0%
Time 15 min
  Released torasemide (%): 0.7%
Time 30 min
  Released torasemide (%): 20.3%
Time 45 min
  Released torasemide (%): 38.5%
Time 60 min
  Released torasemide (%): 51.8%
Time 90 min
  Released torasemide (%): 68.5%
Time 120 min
  Released torasemide (%): 78.7%

From US7037928B2, “Compositions of N-(methylethylaminocarbonyl)-4-(-3-methylphenylamino)-3-pyridylsulfonamide and cyclic oligosaccharides” (PLIVA, farmaceutska industrija, dionicko drustvo, priority 2000, dated 2006)
